“Also recorded” adds a separate entry of the source. Where two headings read alike, the source gives them in different places.
Tests used:
[1] = tested on: A2780; experiment: MTT antiproliferative assay; type: cell-based, human; details: for IC50 / inhibition at 10 µM / inhibition at 30 µM: Homo sapiens; for IC50: read-out: IC50 Value (μM) ± SEM; for inhibition at 10 µM: A2780, 10 μM; for inhibition at 30 µM: A2780, 30 μM; for Selectivity Ratio: IC50 on NIH/3T3 fibroblasts / IC50 on A2780
Text: (§1) As the NCI has not been accepting compound submissions from investigators outside the USA for NCI-60 testing since 2024, chrysin derivatives 3i, 3j, and 5 were instead evaluated in additional viability assays against a simplified panel of human cancer cell lines representing breast (MCF-7 and MDA-MB-231), cervical (HeLa and SiHa), and ovarian cancers. A nonmalignant fibroblast cell line (NIH/3T3) was also used to obtain preliminary results describing the cancer selectivity of the test substances. […] The two effective agents were further investigated using a broad concentration range (0.1–30 µM), and their IC50 values were calculated (Table 3).
(§2) The cell growth-inhibiting properties of compounds 3i, 3j, and 5 were determined by means of the MTT assay against a panel of human malignant cell lines of gynecological origin [8, 27, 40]. The panel included breast (MCF-7 and MDA-MB-231; Cellosaurus accessions: CVCL_0031 and CVCL_0062, respectively), cervical (HeLa and SiHa; CVCL_0030 and CVCL_0032, respectively), and ovarian (A2780; CVCL_0134) cell lines. Nonmalignant murine NIH/3T3 (CVCL_0594) fibroblasts were also used to obtain results characterizing the cancer selectivity of the tested substances. The whole assay was performed as described earlier. […] All applied cell lines were obtained from the European Collection of Cell Cultures (Salisbury, UK), except for SiHa (American Tissue Culture Collection, Manassas, VA, USA). Cisplatin, a clinically available anticancer drug, was included as a reference compound. All experiments were conducted twice, with at least five replicates per condition.

[2] = tested on: HeLa; experiment: MTT antiproliferative assay; type: cell-based, human; details: for IC50 / inhibition at 10 µM / inhibition at 30 µM: Homo sapiens, HeLa; for IC50: read-out: IC50 Value (μM) ± SEM; for Selectivity Ratio: IC50 on NIH/3T3 fibroblasts / IC50 on HeLa
Text: as §1, §2

[3] = tested on: MCF-7; experiment: MTT antiproliferative assay; type: cell-based, human; details: for inhibition at 10 µM / inhibition at 30 µM / IC50: Homo sapiens, MCF7; for inhibition at 10 µM: MCF-7, 10 μM; for inhibition at 30 µM: MCF-7, 30 μM; for IC50: MCF-7, read-out: IC50 Value (μM) ± SEM; for Selectivity Ratio: IC50 on NIH/3T3 fibroblasts / IC50 on MCF-7
Text: as §1, §2

[4] = tested on: MDA-MB-231; experiment: MTT antiproliferative assay; type: cell-based, human; details: for IC50 / inhibition at 10 µM / inhibition at 30 µM: Homo sapiens; for IC50: read-out: IC50 Value (μM) ± SEM; for inhibition at 10 µM: MDA-MB-231, 10 μM; for inhibition at 30 µM: MDA-MB-231, 30 μM; for Selectivity Ratio: IC50 on NIH/3T3 fibroblasts / IC50 on MDA-MB-231
Text: as §1, §2

[5] = tested on: SiHa; experiment: MTT antiproliferative assay; type: cell-based, human; details: for IC50 / inhibition at 10 µM / inhibition at 30 µM: Homo sapiens, SiHa; for IC50: read-out: IC50 Value (μM) ± SEM; for Selectivity Ratio: IC50 on NIH/3T3 fibroblasts / IC50 on SiHa
Text: as §1, §2

[6] = tested on: NIH/3T3 (fibroblast); experiment: MTT antiproliferative assay; type: cell-based, murine; details: Mus musculus; for inhibition at 10 µM: NIH3T3, 10 μM; for IC50: NIH3T3, read-out: IC50 Value (μM) ± SEM
Text: as §1, §2

[7] = tested on: panel of human malignant cell lines of gynecological origin; experiment: MTT antiproliferative assay, whole panel; type: cell-based; details: for inhibition at 10 µM / IC50: Homo sapiens; for inhibition at 10 µM: across the tested cell lines, read-out: inhibition rates; for IC50: HeLa, SiHa, MCF-7, MDA-MB-231, A2780, read-out: IC50 values (range over cancer cell lines)
Text: as §1
Besides the cell growth-inhibiting potency, cancer selectivity is a crucial factor determining the perspective of a drug candidate. This property is expressed as a selectivity ratio, i.e., the ratio of the compound’s IC50 obtained on the non-cancerous fibroblasts and those from the cancer cell lines. A higher ratio indicates more promising cancer selectivity (Table 3). […] Based on these efficacy and selectivity data, further cell-based studies were performed with 3i against MCF-7 breast cancer cells.
as §2

[8] = tested on: MCF-7 cells; experiment: Cell cycle analysis by flow cytometry; type: cell-based, human; details: MCF-7, 0.3 and 0.6 µM
Method: The observed cell cycle disturbance is consistent with a blockade at the G1–S transition, which triggers apoptotic cell death.
Cell cycle analysis by flow cytometry was applied to characterize the effects of 3i on the phase distribution of the treated cells. MCF-7 cells were seeded onto 12-well plates (200,000 cells/well) and incubated overnight. They were then treated with 0.3 or 0.6 μM for 24 or 48 h. After the treatment, the propidium iodide-labeled cells were analyzed using a CytoFLEX instrument (Beckman Coulter, Brea, CA, USA), and at least 20,000 cells per sample were evaluated, as described in a recent publication. The obtained data were processed using ModFit LT 3.3.11 software (Verity Software House, Topsham, ME, USA) as referenced by Vermes et al..

[9] = tested on: MCF-7 cells; experiment: Wound-healing assay (migration); type: cell-based, human
Method: The effect of the selected compound on the migration of MCF-7 cells was investigated by means of the wound-healing assay.
The effect of substance 3i on the migration of the treated cancer cells was determined using a wound-healing assay, as presented earlier. Briefly, MCF-7 cells were trypsinized and plated into wound assay chambers (ibidi GmbH, Martinsried, Germany) at a density of 40,000 cells/insert, and the plate was incubated under standard conditions to allow proper attachment. Then, the inserts were carefully removed, and the cells were subsequently treated with 3i in fresh medium containing 2% FBS. The cell migration was recorded using a phase-contrast inverted microscope (Nikon Instruments Europe, Amstelveen, The Netherlands) fitted with a CCD camera (QImaging MicroPublisher Color RTV5.0 Teledyne Photometrics, Tucson, AZ, USA). The cell-free areas in treated samples and controls were determined using ImageJ software 1.54d (National Institutes of Health, Bethesda, MD, USA). The assays were performed in triplicates and all the statistical analyses were carried out by means of GraphPad Prism software.

[10] = tested on: HeLa; design: method as in PMID 40332477; details: published earlier ref 8, read-out: IC50 Value (μM) ± SEM; cited from earlier work
[11] = tested on: SiHa; design: method as in PMID 40332477; details: published earlier ref 8, read-out: IC50 Value (μM) ± SEM; cited from earlier work
[12] = tested on: MCF-7; design: method as in PMID 40332477; details: published earlier ref 8, read-out: IC50 Value (μM) ± SEM; cited from earlier work
[13] = tested on: MDA-MB-231; design: method as in PMID 40332477; details: published earlier ref 8, read-out: IC50 Value (μM) ± SEM; cited from earlier work
[14] = tested on: A2780; design: method as in PMID 40332477; details: published earlier ref 8, read-out: IC50 Value (μM) ± SEM; cited from earlier work
[15] = tested on: NIH/3T3 (fibroblast); design: method as in PMID 40332477; details: published earlier ref 8, read-out: IC50 Value (μM) ± SEM; cited from earlier work
[16] = read-out: Growth Inhibition (%) ± SEM
[17] = read-out: Growth Inhibition (%) ± SEM (converted)
[18] = NIH3T3, 30 μM, read-out: Growth Inhibition (%) ± SEM
[19] = A2780, heading: Growth Inhibition ± SEM
[20] = heading: Growth Inhibition ± SEM
[21] = MDA-MB-231, heading: Growth Inhibition ± SEM

Row | IC50 ([1]; A2780) | IC50 [2] | IC50 [3] | IC50 ([4]; MDA-MB-231) | Compound | inhibition at 10 µM [1, 16] | inhibition at 30 µM [1, 17] | Selectivity Ratio [1] | inhibition at 10 µM [2, 16] | inhibition at 30 µM [2, 17] | Selectivity Ratio [2] | inhibition at 10 µM [3, 16] | inhibition at 30 µM [3, 16] | Selectivity Ratio [3] | inhibition at 10 µM [4, 16] | inhibition at 30 µM [4, 17] | Selectivity Ratio [4] | IC50 [5] | inhibition at 10 µM [5, 16] | Selectivity Ratio [5] | inhibition at 10 µM [6, 16] | other results
1 | 0.66 ± 0.03 µM | 1.08 ± 0.02 µM | 0.26 ± 0.02 µM | 0.54 ± 0.02 µM | COc1ccccc1[P+](CCCCOc1cc(O)c2c(=O)cc(-c3ccccc3)oc2c1)(c1ccccc1)c1ccccc1 [3i] | 96.85 ± 0.37% | 98.3% | 2.52 | 96.5 ± 2.76% | 98.9% | 1.54 | 95.4 ± 1.54% | 95.8 ± 1.46% | 6.38 | 88.6 ± 3.72% | 87.4% | 3.07 | 1.15 ± 0.03 µM | 83.2 ± 2.13% | 1.44 | 97.73 ± 0.53% | inhibition at 30 µM [5, 17]: 104%; inhibition at 30 µM [6, 18]: 98.5%; IC50 [6]: 1.66 ± 0.15 µM; inhibition at 10 µM [7]: > 80%; IC50 [7]: 260 to 1150 nM; cell cycle distribution ([8]; 24 h): significantly increased the proportion of the G0/G1 cell population; cell cycle distribution ([8]; 48 h): statistically significant accumulation of the hypodiploid (SubG1) cell population; inhibition of migration ([9]; MCF-7, 24 h): significant inhibition in the migration capacity at a concentration of 0.3 μM only; inhibition of migration ([9]; MCF-7, 48 h): significant even at subantiproliferative concentration (0.1 μM)
2 | 1.37 ± 0.04 µM | 2.93 ± 0.02 µM | 0.88 ± 0.01 µM | 1.24 ± 0.02 µM | CC(C)(C)[P+](CCCCOc1cc(O)c2c(=O)cc(-c3ccccc3)oc2c1)(c1ccccc1)c1ccccc1 [3j] | 98.77 ± 0.19% | 98.96 ± 0.381% | 1.43 | 96.64 ± 0.26% | 97.5% | 0.67 | 98.65 ± 0.29% | 98.68 ± 0.32% | 2.23 | 98 ± 1.03% | 98.1 ± 0.13% | 1.58 | 1.47 ± 0.01 µM | 97.91 ± 0.06% | 1.33 | 98.38 ± 0.53% | inhibition at 30 µM [5, 17]: 97.81 ± 0.46%; inhibition at 30 µM [6, 18]: 99%; IC50 [6]: 1.96 ± 0.01 µM; inhibition at 10 µM [7]: > 80%; IC50 [7]: 880 to 2930 nM
3 |  |  |  |  | N.N.[Cl][Pt][Cl] [Cisplatin] |  |  | 1.93 |  |  | 0.20 |  |  | 1.04 |  |  | 0.14 |  |  | 0.17 |  | IC50 [10]: 13.6 ± 0.44 µM; IC50 [11]: 15.5 ± 0.93 µM; IC50 [12]: 2.6 ± 0.17 µM; IC50 [13]: 19.13 ± 0.12 µM; IC50 [14]: 1.4 ± 0.11 µM; IC50 [15]: 2.7 ± 0.3 µM
4 |  |  |  |  | O=C(CC(c1ccccc1)(c1ccccc1)c1ccccc1)Oc1cc(O)c2c(=O)cc(-c3ccccc3)oc2c1 [compound 5] |  |  |  |  |  |  |  |  |  |  |  |  |  |  |  | > 10% | inhibition at 10 µM [1, 19]: < 10%; inhibition at 30 µM [1, 19]: < 10%; inhibition at 10 µM [2, 20]: < 10%; inhibition at 30 µM [2, 20]: < 10%; inhibition at 10 µM [3, 20]: < 10%; inhibition at 30 µM [3, 20]: < 10%; inhibition at 10 µM [4, 21]: < 10%; inhibition at 30 µM [4, 21]: < 10%; inhibition at 10 µM [5, 20]: < 10%; inhibition at 30 µM [5, 20]: < 10%; inhibition at 30 µM ([6]; NIH3T3, heading: Growth Inhibition ± SEM, 30 μM): < 10%; cell growth-inhibiting effect (in words) ([7]; 10 and 30 μM): ineffective; also recorded: no cytotoxicity
